B1: Thermotoga maritima FtsH (TmFtsH) H423Y mutant, full length (enzyme, UniProt Q9WZ49 1-610, looked up)
chain: MNRSNIWNLLFTILIIVTLFWLARFFYVENSPVSKLSYTSFVQMVEDERSVVSEVVIRDDGVLRVYTKDGRVYEVDAPWAVNDSQLIEKLVSKGIKVSGERSGSSSFWINVLGTLIPTILFIVVWLFIMRSLSGRNNQAFTFTKSRATMYKPSGNKRVTFKDVGGAEEAIEELKEVVEFLKDPSKFNRIGARMPKGILLVGPPGTGKTLLARAVAGEANVPFFHISGSDFVELFVGVGAARVRDLFAQAKAHAPCIVFIDEIDAVGRHRGAGLGGGHDEREQTLNQLLVEMDGFDSKEGIIVMAATNRPDILDPALLRPGRFDKKIVVDPPDMLGRKKILEIHTRNKPLAEDVNLEIIAKRTPGFVGADLENLVNEAALLAAREGRDKITMKDFEEAIDRVIAGPARKSKLISPKEKRIIAYYEAGHAVVSTVVPNGEPVHRISIIPRGYKALGYTLHLPEEDKYLVSRNELLDKLTALLGGRAAEEVVFGDVTSGAANDIERATEIARNMVCQLGMSEELGPLAWGKEEQEVFLGKEITRLRNYSEEVASKIDEEVKKIVTNCYERAKEIIRKYRKQLDNIVEILLEKETIEGDELRRILSEEFEKVVE
notes: FtsH (Filamentation Temperature Sensitive Protein H) of Thermotoga maritima, full-length cDNA in the pET24-derived pMSCG-7 plasmid, with the H423Y mutation; 610 residues are named in the comparison with YME1; The vector probably adds an N-terminal His6 tag with a TEV site (surmised), and no cleavage is described; The atomic model 7TDO covers only the ATPase and protease domains (2484 residues in …)

Legend:
[1] = molecular target: T1, TmFtsH (FtsH from Thermotoga maritima), full length (Thermotoga maritima, UniProt Q9WZ49, H423Y); experiment: cryo-EM structure ([…] A); format: binding; conditions: six ADP per hexamer, one in each ATPase domain; endogenous co-purified ADP, none added; MSP1D1 nanodiscs, pH 7.6; C6 symmetry
T1 construct: full length, His-tag purification (HisTrap), E. coli BL21(DE3) pLysS membranes, LDAO, reconstituted in MSP1D1 nanodiscs with soybean polar lipids; homohexamer; only ATPase and protease domains modelled (2484 residues per hexamer)

[2] = molecular target: the molecule itself; experiment: cryo-EM structure; TmFtsH H423Y in MSP1D1 nanodiscs (soybean polar lipids), diluted in 20 mM HEPES pH 7.6, 100 mM NaCl, 0.05% CHAPS; no ADP or ATP added; C6 reconstruction at 3.15 Å (C1: 3.4 Å) of the ATPase and protease domains; full-length reconstruction at 7.9 Å without symmetry

| Molecule | cryo-EM structure (3.15 A) [1] | stoichiometry N [2] |
| --- | --- | --- |
| Nc1ncnc2c1ncn2[C@@H]1O[C@H](COP(=O)(O)OP(=O)(O)O)[C@@H](O)[C@H]1O [ADP] | ADP bound endogenously to TmFtsH and survived the co-purification and reconstitution processes | – |
| B1 | – | 6 |
